Drawing on patent US6033823A, “Mutated penicillin G acylase genes” (priority 1994, dated 2000), this text covers Ki for one molecule.

Where a chain is given by its changes, count along the chain named.

The term Ki denotes the dissociation constant of the complex between target and ligand, obtained from inhibition or displacement.

Assay [1] addresses T1, Alcaligenes faecalis Penicillin G acylase mutant B:I177S (Alcaligenes faecalis, UniProt O34142, I442S).
T1 construct: alpha 202 aa, beta 551 aa; recombinant, E. coli host
T1 sequence (O34142 27-228): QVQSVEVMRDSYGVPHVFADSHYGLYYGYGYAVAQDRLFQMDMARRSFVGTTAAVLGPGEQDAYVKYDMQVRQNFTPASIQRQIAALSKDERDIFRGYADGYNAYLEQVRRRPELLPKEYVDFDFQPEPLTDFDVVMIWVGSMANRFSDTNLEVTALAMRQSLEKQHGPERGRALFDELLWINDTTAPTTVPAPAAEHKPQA
T1 sequence (O34142 266-816 I442S): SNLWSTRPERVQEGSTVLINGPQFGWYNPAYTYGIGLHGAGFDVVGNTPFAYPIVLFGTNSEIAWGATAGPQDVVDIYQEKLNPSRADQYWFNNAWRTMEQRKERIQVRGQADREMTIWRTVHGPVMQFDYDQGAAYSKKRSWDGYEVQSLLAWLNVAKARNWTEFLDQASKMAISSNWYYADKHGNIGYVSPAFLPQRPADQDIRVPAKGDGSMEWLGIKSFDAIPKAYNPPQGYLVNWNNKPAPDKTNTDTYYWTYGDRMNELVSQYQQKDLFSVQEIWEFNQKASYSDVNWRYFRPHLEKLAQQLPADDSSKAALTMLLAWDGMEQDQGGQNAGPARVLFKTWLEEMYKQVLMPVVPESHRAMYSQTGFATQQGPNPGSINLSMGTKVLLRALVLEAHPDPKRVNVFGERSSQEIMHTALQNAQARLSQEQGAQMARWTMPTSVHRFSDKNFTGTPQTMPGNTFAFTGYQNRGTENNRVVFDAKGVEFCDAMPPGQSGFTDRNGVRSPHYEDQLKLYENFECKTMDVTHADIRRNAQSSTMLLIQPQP
The assay can be described thus: NIPAB kinetics and phenylacetic acid product inhibition, mutant B:I177S. The format is biochemical. Conditions: from progress curves of NIPAB deacylation, 25° C., 0.1 M NaH2PO4.H2O buffer pH 7.5, read-out: Ki Phenylacetic acid (inhibition constant, dissociation constant). The method, then:
In a continuous assay Penicillin G acylase was assayed spectro-fotometrically with the chromogenic substrate NIPAB [6-nitro-3-phenylacetamido-benzoic acid]. The liberation of 3-amino-6-nitrobenzoic acid was monitored by measuring the extinction at 405 nm in a Kontron 610 kinetic spectrofotometer. Measuring maximal rate, the assays were performed at 25° C. using 20 mM NaH2 PO4.H2 O at pH 7.5 with 20 mM NIPAB and 100 μl enzym solution (at a proper dilution). Initial rate measurements were performed with varying concentration of NIPAB.
Initial rate measurements were performed with excess substrate over the enzyme. Catalytic parameters were derived from least-squares fitting of the measured initial rates plotted for various substrate concentrations according to the Michaelis-Menten equation.
The complete conversion of NIPAB was followed as a funtion of time at 20, 50 and 100 μM NIPAB by following the increase in absorbtion at 405 nm. Products of this conversion are phenylacetic acid and 3-amino-6-nitrobenzoic acid. The conversion was performed at 25° C. in 0.1 M NaH2 PO4.H2 O buffer pH 7.5. The progress curves of the deacylation of NIPAB could be fitted very well when product inhibition by phenylacetic acid was taken into account. […]

The target of assay [2] is T2, Alcaligenes faecalis Penicillin G acylase mutant A:M143V (Alcaligenes faecalis, UniProt O34142, M169V).
T2 construct: alpha 202 aa, beta 551 aa; recombinant, E. coli host
T2 sequence (O34142 27-228 M169V): T1 sequence (O34142 27-228) with M143V
T2 sequence (O34142 266-816): T1 sequence (O34142 266-816 I442S) with S177I
The assay can be described thus: Deacylation kinetics and phenylacetic acid product inhibition, mutant A:M143V. The format is biochemical. The settings on record: from progress curves of NIPAB deacylation, 25° C., 0.1 M NaH2PO4.H2O buffer pH 7.5, read-out: Ki Phenylacetic acid (inhibition constant, dissociation constant). As for the experimental part:
In order to determine enzymatic activity the acylases were incubated with substrate at room temperature in buffered solution. In case β-lactamase impurity was expected to be present in the enzyme preparations, 1.0 mM -lactamase inhibitor 6-bromo-penicillanic acid was added to the assay. The reactions were stopped by adding an excess PMSF. For some mutants which were less sensitive to PMSF inhibition, the reactions were stopped by adding 0.5 M HCl or 0.5 M acetic acid until the pH was between 3 and 4. When reactions were subsequently analysed by HPLC, the reactions were stopped by dilution with the correponding elution solvent (see table 1). […]
The composition of the reaction mixtures was determined by high-performanceliquid chromatography (HPLC)(table 1). Concentrations were determined by using standards of known concentration.
In a continuous assay Penicillin G acylase was assayed spectro-fotometrically with the chromogenic substrate NIPAB [6-nitro-3-phenylacetamido-benzoic acid]. The liberation of 3-amino-6-nitrobenzoic acid was monitored by measuring the extinction at 405 nm in a Kontron 610 kinetic spectrofotometer. […]
Initial rate measurements were performed with excess substrate over the enzyme. Catalytic parameters were derived from least-squares fitting of the measured initial rates plotted for various substrate concentrations according to the Michaelis-Menten equation. […]

`O=C(O)Cc1ccccc1` [phenylacetic acid]: the results for the Ki in assay [1] and in assay [2] were 252 µM and 74 µM, respectively.
